# Tested on: transgenic maize plants (Zm cytoplasmic/chloroplastic ALT-1-02, ALT-2-02, ALT-3-02)
# Assay: Sulfometuron-methyl tolerance of transgenic maize plants, damage degree by plant growth status
# Type: in vivo
# Details: 120 g ai/ha; for Average damage % 3DAT / Average damage % 7DAT / Average damage % 14DAT / Average damage % 21DAT: 4-fold field concentration; for Average damage % 3DAT: 3 days after spraying; for Average damage % 7DAT: 7 days after spraying; for Average damage % 14DAT: 14 days after spraying; for Average damage % 21DAT: 21 days after spraying
# Text: The herbicide tolerance effects of Zm cytoplasmic ALT-1-02 maize plants, Zm chloroplastic ALT-1-02 maize plants, Zm cytoplasmic ALT-2-02 maize plants, Zm chloroplastic ALT-2-02 maize plants, Zm cytoplasmic ALT-3-02 maize plants, Zm chloroplastic ALT-3-02 maize plants and wild-type maize plants on Sulfometuron-methyl were detected (at V3-V4 stage), respectively.
# Zm cytoplasmic ALT-1-02 maize plants, Zm chloroplastic ALT-1-02 maize plants, Zm cytoplasmic ALT-2-02 maize plants, Zm chloroplastic ALT-2-02 maize plants, Zm cytoplasmic ALT-3-02 maize plants, Zm chloroplastic ALT-3-02 maize plants and wild-type maize plants were respectively taken and sprayed with Sulfometuron-methyl (120 g ai/ha, 4-fold field concentration) and a blank solvent (water). The damage degree caused by the herbicide was measured for each plant according to the plant growth status 3 days after spraying (3 DAT), 7 days after spraying (7 DAT), 14 days after spraying (14 DAT) and 21 days after spraying (21 DAT), respectively: considering a growth status equivalent to that of the untreated plants as having a damage degree of 0%; considering conditions of leaves being partially chlorotic and yellow but substantially not affecting the plant normal growth as having a damage degree of 50%; and considering the whole plant being purple and dying as having a damage degree of 100%. There were 2 strains in Zm cytoplasmic ALT-1-02 maize plants in total (S13 and S14), 2 strains in Zm chloroplastic ALT-1-02 maize plants in total (S15 and S16), 2 strains in Zm cytoplasmic ALT-2-02 maize plants in total (S17 and S18), 2 strains in Zm chloroplastic ALT-2-02 maize plants in total (S19 and S20), 2 strains in Zm cytoplasmic ALT-3-02 maize plants in total (S21 and S22), 2 strains in Zm chloroplastic ALT-3-02 maize plants in total (S23 and S24), and 1 strain in wild-type maize plants (CK2) in total; and 10-15 plants were selected from each strain and tested.
# [1] = strain S13 (Zm cytoplasmic ALT-1-02 maize)
# [2] = strain S14 (Zm cytoplasmic ALT-1-02 maize)
# [3] = strain S15 (Zm chloroplastic ALT-1-02 maize)
# [4] = strain S16 (Zm chloroplastic ALT-1-02 maize)
# [5] = strain S17 (Zm cytoplasmic ALT-2-02 maize)
# [6] = strain S18 (Zm cytoplasmic ALT-2-02 maize)
# [7] = strain S19 (Zm chloroplastic ALT-2-02 maize)
# [8] = strain S20 (Zm chloroplastic ALT-2-02 maize)
# [9] = strain S21 (Zm cytoplasmic ALT-3-02 maize)
# [10] = strain S22 (Zm cytoplasmic ALT-3-02 maize)
# [11] = strain S23 (Zm chloroplastic ALT-3-02 maize)
# [12] = strain S24 (Zm chloroplastic ALT-3-02 maize)
smiles,measurement,setting,value
"COC(=O)c1ccccc1S(=O)(=O)NC(=O)Nc1nc(C)cc(C)n1 [Sulfometuron-methyl, 2-(4,6-dimethylpyrimidine-2-amino-formamido-sulfonyl) methyl benzoate]",Average damage % 3DAT,[1],6%
same,Average damage % 7DAT,[1],0%
same,Average damage % 14DAT,[1],0%
same,Average damage % 21DAT,[1],0%
same,Average damage % 3DAT,[2],7%
same,Average damage % 7DAT,[2],0%
same,Average damage % 14DAT,[2],0%
same,Average damage % 21DAT,[2],0%
same,Average damage % 3DAT,[3],0%
same,Average damage % 7DAT,[3],0%
same,Average damage % 14DAT,[3],0%
same,Average damage % 21DAT,[3],0%
same,Average damage % 3DAT,[4],0%
same,Average damage % 7DAT,[4],0%
same,Average damage % 14DAT,[4],0%
same,Average damage % 21DAT,[4],0%
same,Average damage % 3DAT,[5],6%
same,Average damage % 7DAT,[5],0%
same,Average damage % 14DAT,[5],0%
same,Average damage % 21DAT,[5],0%
same,Average damage % 3DAT,[6],5%
same,Average damage % 7DAT,[6],0%
same,Average damage % 14DAT,[6],0%
same,Average damage % 21DAT,[6],0%
same,Average damage % 3DAT,[7],0%
same,Average damage % 7DAT,[7],0%
same,Average damage % 14DAT,[7],0%
same,Average damage % 21DAT,[7],0%
same,Average damage % 3DAT,[8],0%
same,Average damage % 7DAT,[8],0%
same,Average damage % 14DAT,[8],0%
same,Average damage % 21DAT,[8],0%
same,Average damage % 3DAT,[9],5%
same,Average damage % 7DAT,[9],0%
same,Average damage % 14DAT,[9],0%
same,Average damage % 21DAT,[9],0%
same,Average damage % 3DAT,[10],5%
same,Average damage % 7DAT,[10],0%
same,Average damage % 14DAT,[10],0%
same,Average damage % 21DAT,[10],0%
same,Average damage % 3DAT,[11],0%
same,Average damage % 7DAT,[11],0%
same,Average damage % 14DAT,[11],0%
same,Average damage % 21DAT,[11],0%
same,Average damage % 3DAT,[12],0%
same,Average damage % 7DAT,[12],0%
same,Average damage % 14DAT,[12],0%
same,Average damage % 21DAT,[12],0%
same,"herbicide tolerance conferred by the thifensulfuron hydrolase (ALT-1, ALT-2 and ALT-3)",transgenic maize plants,conferred a high level of Sulfometuron-methyl herbicide tolerance

# — patent US20190055576A1, “USE OF HERBICIDE-TOLERANT PROTEIN” (BEIJING DABEINONG TECHNOLOGY GROUP CO., LTD., priority 2016, published 2019)
